*1 amine or outer side, *2 acyl side, *3 side chain or, on linkers, in order; H or OH if unused. Where a SMILES comes first, the peptide text is derived from it. Bridges are numbered along the chain shown (N, C = ends). [ ]: non-standard residue; d: D form. The star is where a group is joined. hPhe(3-Cl-4-CF3) = N[C@@H](CCc1ccc(C(F)(F)F)c(Cl)c1)C(=O)O; NPrPhe(4-CF3) = CCCN[C@@H](Cc1ccc(C(F)(F)F)cc1)C(=O)O; Pro(4-spirocPr) = O=C(O)[C@@H]1CC2(CC2)CN1; Abu(4,4,4-F3) = N[C@@H](CC(F)(F)F)C(=O)O; NMeGly(cPent) = CN[C@H](C(=O)O)C1CCCC1; X9 = CC1(C)CN([*:1])[C@@H]1C(=O)[*:2]; Hyp = O=C(O)[C@@H]1C[C@@H](O)CN1; Gly(cBu) = N[C@H](C(=O)O)C1CCC1; NMeD = CN[C@@H](CC(=O)O)C(=O)O; NMeL = CN[C@@H](CC(C)C)C(=O)O; X10 = N#CCN(CC(=O)[*:2])[*:1]; hPip = O=C(O)[C@@H]1CCCCCN1; Morpholide = C1CN(*)CCO1; Ac5c = NC1(C(=O)O)CCCC1; Aze = O=C(O)[C@@H]1CCN1; NcPrGly = O=C(O)CNC1CC1; Abu = CC[C@H](N)C(=O)O; NPrGly = CCCNCC(=O)O; NEtG = CCNCC(=O)O; Sar = CNCC(=O)O
Experiments:
[1] = target: GDP-bound NRAS wild-type protein (Homo sapiens, UniProt P01111); assay: Binding to NRAS by surface plasmon resonance (SPR), KD and KD ratio to KRAS; settings: ratio of KD for GDP-bound NRAS wild-type protein to KD for KRAS
GDP-bound NRAS wild-type protein, sequence (P01111 whole entry): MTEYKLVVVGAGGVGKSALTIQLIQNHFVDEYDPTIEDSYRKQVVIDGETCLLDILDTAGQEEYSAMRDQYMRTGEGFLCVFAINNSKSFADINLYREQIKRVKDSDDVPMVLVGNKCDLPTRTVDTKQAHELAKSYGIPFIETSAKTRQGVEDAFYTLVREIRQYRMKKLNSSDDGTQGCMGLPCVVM
Outline: (§1)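 SPR, 30°C: Avi-biotin RAS·GDP captured via Biotin CAPture (~100–300 RU); running buffer HBS pH 7.4, 1 mM DTT, 10 mM MgCl2, 0.01% Tween 20, 10 µM GDP, 4% DMSO. Single-cycle kinetics, 100 µL/min, 75 s injections; 1:1 model → KD.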

[2] = target: HRAS wild-type protein (Homo sapiens, UniProt P01112); assay: Binding to HRAS by surface plasmon resonance (SPR), KD and KD ratio to KRAS; settings: ratio of KD for HRAS wild-type protein to KD for KRAS
HRAS wild-type protein, sequence (P01112 whole entry): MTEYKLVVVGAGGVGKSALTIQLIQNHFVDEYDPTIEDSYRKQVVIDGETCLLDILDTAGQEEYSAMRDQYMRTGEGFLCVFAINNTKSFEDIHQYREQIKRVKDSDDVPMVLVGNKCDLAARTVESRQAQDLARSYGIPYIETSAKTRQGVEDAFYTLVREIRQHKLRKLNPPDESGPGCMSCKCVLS
Outline: as §1

[3] = system: human lung cancer strain NCI-H441; format: cell-based
Outline: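 Proliferation was scored by […] measured after the reagent was added to cultures kept at 37°C in 5% carbon dioxide.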

SMILES	NRAS /KRAS [1]	HRAS /KRAS [2]	IC50 [3] [nM]
CCCN1C(=O)CN(C)C(=O)CN(C)C(=O)[C@H]([C@@H](C)CC)NC(=O)[C@@H]2CCCCCN2C(=O)C[C@@H](C(=O)N2CCOCC2)N(C)C(=O)[C@H](C2CCCC2)N(C)C(=O)C2(CCCC2)NC(=O)[C@@H]2CCCN2C(=O)[C@H](CCc2ccc(C(F)(F)F)c(Cl)c2)NC(=O)CN(C)C(=O)[C@@H]1Cc1ccc(C(F)(F)F)cc1 [PP0247] ([hPip]I[Sar][Sar][NPrPhe(4-CF3)][Sar][hPhe(3-Cl-4-CF3)]P[Ac5c][NMeGly(cPent)][NMeD]-Morpholide; lactam N-11)	B (a compound having 3 or more and less than 10 is denoted as B)	C (A compound having a KD ratio of 0.1 or more and less than 3 is denoted as C)	41.3
CCCN1C(=O)CN(C)C(=O)CN(C)C(=O)[C@H](CC)NC(=O)[C@H](CC(C)C)N(C)C(=O)C[C@@H](C(=O)N2CCOCC2)N(C)C(=O)[C@H](C2CCCC2)N(C)C(=O)C2(CCCC2)NC(=O)[C@@H]2CCCN2C(=O)[C@H](CCc2ccc(C(F)(F)F)c(Cl)c2)NC(=O)CN(C)C(=O)[C@@H]1Cc1ccc(C(F)(F)F)cc1 [PP0248] ([NMeL][Abu][Sar][Sar][NPrPhe(4-CF3)][Sar][hPhe(3-Cl-4-CF3)]P[Ac5c][NMeGly(cPent)][NMeD]-Morpholide; lactam N-11)	B (a compound having 3 or more and less than 10 is denoted as B)	B (a compound having 3 or more and less than 10 is denoted as B)	84
CCCN1C(=O)CN(C)C(=O)CN(C)C(=O)[C@H](CC(F)(F)F)NC(=O)[C@H](CC(C)C)N(C)C(=O)C[C@@H](C(=O)N2CCOCC2)N(C)C(=O)[C@H](C2CCCC2)N(C)C(=O)C2(CCCC2)NC(=O)[C@@H]2CCCN2C(=O)[C@H](CCc2ccc(C(F)(F)F)c(Cl)c2)NC(=O)CN(C)C(=O)[C@@H]1Cc1ccc(C(F)(F)F)cc1 [PP0249] ([NMeL][Abu(4,4,4-F3)][Sar][Sar][NPrPhe(4-CF3)][Sar][hPhe(3-Cl-4-CF3)]P[Ac5c][NMeGly(cPent)][NMeD]-Morpholide; lactam N-11)	B (a compound having 3 or more and less than 10 is denoted as B)	C (A compound having a KD ratio of 0.1 or more and less than 3 is denoted as C)	25.5
CCCN1C(=O)CN(C)C(=O)CN(C)C(=O)[C@H](C2CCC2)NC(=O)[C@H](CC(C)C)N(C)C(=O)C[C@@H](C(=O)N2CCOCC2)N(C)C(=O)[C@H](C2CCCC2)N(C)C(=O)C2(CCCC2)NC(=O)[C@@H]2CCCN2C(=O)[C@H](CCc2ccc(C(F)(F)F)c(Cl)c2)NC(=O)CN(C)C(=O)[C@@H]1Cc1ccc(C(F)(F)F)cc1 [PP0250] ([NMeL][Gly(cBu)][Sar][Sar][NPrPhe(4-CF3)][Sar][hPhe(3-Cl-4-CF3)]P[Ac5c][NMeGly(cPent)][NMeD]-Morpholide; lactam N-11)	B (a compound having 3 or more and less than 10 is denoted as B)	C (A compound having a KD ratio of 0.1 or more and less than 3 is denoted as C)	6.7
CCCN1C(=O)CN(C)C(=O)CN(C2CC2)C(=O)[C@H]([C@@H](C)CC)NC(=O)[C@H](CC(C)C)N(C)C(=O)C[C@@H](C(=O)N2CCOCC2)N(C)C(=O)[C@H](C2CCCC2)N(C)C(=O)C2(CCCC2)NC(=O)[C@@H]2CCCN2C(=O)[C@H](CCc2ccc(C(F)(F)F)c(Cl)c2)NC(=O)CN(C)C(=O)[C@@H]1Cc1ccc(C(F)(F)F)cc1 [PP0252] ([NMeL]I[NcPrGly][Sar][NPrPhe(4-CF3)][Sar][hPhe(3-Cl-4-CF3)]P[Ac5c][NMeGly(cPent)][NMeD]-Morpholide; lactam N-11)	B (a compound having 3 or more and less than 10 is denoted as B)	B (a compound having 3 or more and less than 10 is denoted as B)	19.4
CCCN1CC(=O)N(C)CC(=O)N(CCC)[C@@H](Cc2ccc(C(F)(F)F)cc2)C(=O)N(C)CC(=O)N[C@@H](CCc2ccc(C(F)(F)F)c(Cl)c2)C(=O)N2CCC[C@H]2C(=O)NC2(CCCC2)C(=O)N(C)[C@@H](C2CCCC2)C(=O)N(C)[C@H](C(=O)N2CCOCC2)CC(=O)N(C)[C@@H](CC(C)C)C(=O)N[C@@H]([C@@H](C)CC)C1=O [PP0253] ([NMeL]I[NPrGly][Sar][NPrPhe(4-CF3)][Sar][hPhe(3-Cl-4-CF3)]P[Ac5c][NMeGly(cPent)][NMeD]-Morpholide; lactam N-11)	B (a compound having 3 or more and less than 10 is denoted as B)	B (a compound having 3 or more and less than 10 is denoted as B)	15.1
CCCN1C(=O)CN(C)C(=O)CN(CC#N)C(=O)[C@H]([C@@H](C)CC)NC(=O)[C@H](CC(C)C)N(C)C(=O)C[C@@H](C(=O)N2CCOCC2)N(C)C(=O)[C@H](C2CCCC2)N(C)C(=O)C2(CCCC2)NC(=O)[C@@H]2CCCN2C(=O)[C@H](CCc2ccc(C(F)(F)F)c(Cl)c2)NC(=O)CN(C)C(=O)[C@@H]1Cc1ccc(C(F)(F)F)cc1 [PP0254] ([NMeL]I[X10][Sar][NPrPhe(4-CF3)][Sar][hPhe(3-Cl-4-CF3)]P[Ac5c][NMeGly(cPent)][NMeD]-Morpholide; lactam N-11)	B (a compound having 3 or more and less than 10 is denoted as B)	C (A compound having a KD ratio of 0.1 or more and less than 3 is denoted as C)	5.6
CCCN1C(=O)CN(C)C(=O)[C@H]2N(CC2(C)C)C(=O)[C@H]([C@@H](C)CC)NC(=O)[C@H](CC(C)C)N(C)C(=O)C[C@@H](C(=O)N2CCOCC2)N(C)C(=O)[C@H](C2CCCC2)N(C)C(=O)C2(CCCC2)NC(=O)[C@@H]2CCCN2C(=O)[C@H](CCc2ccc(C(F)(F)F)c(Cl)c2)NC(=O)CN(C)C(=O)[C@@H]1Cc1ccc(C(F)(F)F)cc1 [PP0256] ([NMeL]I[X9][Sar][NPrPhe(4-CF3)][Sar][hPhe(3-Cl-4-CF3)]P[Ac5c][NMeGly(cPent)][NMeD]-Morpholide; lactam N-11)	B (a compound having 3 or more and less than 10 is denoted as B)	C (A compound having a KD ratio of 0.1 or more and less than 3 is denoted as C)	26.6
CCCN1C(=O)[C@@H]2CCN2C(=O)CN(CC)C(=O)[C@H]([C@@H](C)CC)NC(=O)[C@H](CC(C)C)N(C)C(=O)C[C@@H](C(=O)N2CCOCC2)N(C)C(=O)[C@H](C2CCCC2)N(C)C(=O)C2(CCCC2)NC(=O)[C@@H]2CCCN2C(=O)[C@H](CCc2ccc(C(F)(F)F)c(Cl)c2)NC(=O)CN(C)C(=O)[C@@H]1Cc1ccc(C(F)(F)F)cc1 [PP0259] ([NMeL]I[NEtG][Aze][NPrPhe(4-CF3)][Sar][hPhe(3-Cl-4-CF3)]P[Ac5c][NMeGly(cPent)][NMeD]-Morpholide; lactam N-11)	C (A compound having a KD ratio of 0.1 or more and less than 3 is denoted as C)	B (a compound having 3 or more and less than 10 is denoted as B)	10.2
CCCN1C(=O)CN(C)C(=O)CN(C)C(=O)[C@H]([C@@H](C)CC)NC(=O)[C@H](CC(C)C)N(C)C(=O)C[C@@H](C(=O)N2CCOCC2)N(C)C(=O)[C@H](C2CCCC2)N(C)C(=O)C2(CCCC2)NC(=O)[C@@H]2CCN2C(=O)[C@H](CCc2ccc(C(F)(F)F)c(Cl)c2)NC(=O)CN(C)C(=O)[C@@H]1Cc1ccc(C(F)(F)F)cc1 [PP0260] ([NMeL]I[Sar][Sar][NPrPhe(4-CF3)][Sar][hPhe(3-Cl-4-CF3)][Aze][Ac5c][NMeGly(cPent)][NMeD]-Morpholide; lactam N-11)	B (a compound having 3 or more and less than 10 is denoted as B)	C (A compound having a KD ratio of 0.1 or more and less than 3 is denoted as C)	16.8
CCCN1C(=O)CN(C)C(=O)CN(C)C(=O)[C@H]([C@@H](C)CC)NC(=O)[C@H](CC(C)C)N(C)C(=O)C[C@@H](C(=O)N2CCOCC2)N(C)C(=O)[C@H](C2CCCC2)N(C)C(=O)C2(CCCC2)NC(=O)[C@@H]2CC3(CC3)CN2C(=O)[C@H](CCc2ccc(C(F)(F)F)c(Cl)c2)NC(=O)CN(C)C(=O)[C@@H]1Cc1ccc(C(F)(F)F)cc1 [PP0261] ([NMeL]I[Sar][Sar][NPrPhe(4-CF3)][Sar][hPhe(3-Cl-4-CF3)][Pro(4-spirocPr)][Ac5c][NMeGly(cPent)][NMeD]-Morpholide; lactam N-11)	B (a compound having 3 or more and less than 10 is denoted as B)	C (A compound having a KD ratio of 0.1 or more and less than 3 is denoted as C)	4.6
CCCN1C(=O)CN(C)C(=O)CN(C)C(=O)[C@H]([C@@H](C)CC)NC(=O)[C@H](CC(C)C)N(C)C(=O)C[C@@H](C(=O)N2CCOCC2)N(C)C(=O)[C@H](C2CCCC2)N(C)C(=O)C2(CCCC2)NC(=O)[C@@H]2C[C@@H](OC)CN2C(=O)[C@H](CCc2ccc(C(F)(F)F)c(Cl)c2)NC(=O)CN(C)C(=O)[C@@H]1Cc1ccc(C(F)(F)F)cc1 [PP0262] ([NMeL]I[Sar][Sar][NPrPhe(4-CF3)][Sar][hPhe(3-Cl-4-CF3)][Hyp](Me)[Ac5c][NMeGly(cPent)][NMeD]-Morpholide; lactam N-11)	B (a compound having 3 or more and less than 10 is denoted as B)	B (a compound having 3 or more and less than 10 is denoted as B)	1.9
